# In US7709482B2, “Polycyclic heteroaryl substituted triazoles useful as Axl inhibitors” (Rigel Pharmaceuticals, Inc., priority 2006, dated 2010):
# pIC50: −log10 of the molar value.
# Molecular target: T1, Axl (Homo sapiens, UniProt P30530)
# T1 construct: endogenous in cells; host or cells: HeLa cells
# T1 sequence (P30530 26-894): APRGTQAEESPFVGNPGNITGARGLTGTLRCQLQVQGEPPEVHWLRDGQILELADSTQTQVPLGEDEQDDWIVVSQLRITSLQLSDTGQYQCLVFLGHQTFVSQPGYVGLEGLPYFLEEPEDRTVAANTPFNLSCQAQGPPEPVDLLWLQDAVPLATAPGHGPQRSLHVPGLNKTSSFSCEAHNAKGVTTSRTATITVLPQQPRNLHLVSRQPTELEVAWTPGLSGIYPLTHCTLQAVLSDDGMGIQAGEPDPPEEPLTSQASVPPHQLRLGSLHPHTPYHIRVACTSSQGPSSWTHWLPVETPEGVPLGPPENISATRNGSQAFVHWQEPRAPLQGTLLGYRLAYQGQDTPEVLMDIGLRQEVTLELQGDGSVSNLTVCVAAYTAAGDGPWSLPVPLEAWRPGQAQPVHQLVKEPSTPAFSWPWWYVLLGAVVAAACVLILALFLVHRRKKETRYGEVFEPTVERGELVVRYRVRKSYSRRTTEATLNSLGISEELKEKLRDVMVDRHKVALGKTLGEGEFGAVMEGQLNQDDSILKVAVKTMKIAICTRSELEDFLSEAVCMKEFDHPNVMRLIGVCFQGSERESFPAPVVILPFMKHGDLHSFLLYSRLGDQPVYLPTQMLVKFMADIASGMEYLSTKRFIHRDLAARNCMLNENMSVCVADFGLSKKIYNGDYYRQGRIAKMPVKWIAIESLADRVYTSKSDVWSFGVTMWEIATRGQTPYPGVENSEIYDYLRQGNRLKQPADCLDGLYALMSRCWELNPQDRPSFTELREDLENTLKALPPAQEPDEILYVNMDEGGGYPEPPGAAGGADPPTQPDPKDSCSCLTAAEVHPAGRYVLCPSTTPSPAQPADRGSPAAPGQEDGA
# Assay: Phospho-Akt In-Cell Western Assay (inhibition of Axl activity after Axl-antibody cross-linking)
# Assay type: cell-based
# Details: Hela cells, phospho-Akt chemiluminescence normalized to relative cell number; compounds of formula (Ia), Table 1; read-out: IC50
# Protocol: The compounds of the invention were tested in the following assay for their ability to inhibit Axl activity.
# Phospho-Akt In-Cell Western Assay
# • Cell culture plate: 96 well assay plate (Corning 3610), white, clear bottom, tissue-culture treated. • Cells: Hela cells. • Starvation medium: For Axl stimulation: 0.5% FCS (fetal calf serum) in DMEM, plus Axl/Fc (extracellular domain of AXL fused to immunoglobulin Fc region) (R&D, 154-AL) 500 ng/mL. • For EGF (epidermal growth factor) stimulation: 0.5% FCS in DMEM (Dulbecco's modified Eagles medium). • Poly-L-Lysine 0.01% solution (the working solution): […], dilute In PBS (phosphate buffered saline). • Axl antibody cross-linking: • 1st: Mouse anti-Axl (R&D, MAB154). • 2nd: Biotin-SP-conjugated AffiniPure goat anti-mouse IgG (H+ L) (Jackson ImmunoResearch #115-065-003). • Fixing buffer: 4% formaldehyde in PBS. • Wash buffer: 0.1% TritonX-100 in PBS. • Quenching buffer: 3% H2O2, 0.1% Azide in wash buffer, Azide and hydrogen peroxide (H2O2) are added fresh. • Blocking buffer: 5% BSA in TBST (tris buffered saline plus 0.1% Tween 20). • Primary antibody: Rabbit anti-human Phospho-Akt antibody (Cell Signaling 9271): 1×250 diluted in blocking buffer. • Secondary antibody: HRP (horse radish peroxidase)-conjugated Goat anti-Rabbit secondary, stock solution: Jackson ImmunoResearch (Goat anti-Rabbit HRP, #111-035-144) 1:1 diluted in glycerol, store at −20° C. The working solution: 1×2000 dilution of stock in blocking buffer. • Chemiluminescent working solution (Pierce, 37030): SuperSignal ELISA (enzyme linked immunosorbant assay) Pico Chemiluminescent substrate. • Crystal Violet solution: Stock: 2.5% Crystal violet in methanol, filtered and kept at ambient temperature. The working solution: dilute the stock 1:20 with PBS immediately before use. • 10% SDS: working solution: 5% SDS (sodium dodecylsulfate), diluted in PBS Methods: Day 1:
# A 96 well TC (tissue culture treated) plate was coated with 10 μg/mL poly-L-Lysine at 37° C. for 30 min, washed twice with PBS, and air-dried for 5 minutes before cells were added. Hela cells were seeded at 10,000 cells/well and the cells were starved in 100 μL starvation medium containing Axl/Fc for 24 hrs.
# The cells were pre-treated with test compounds by adding 100 μL of 2× test compound to the starvation medium on the cells. The cells were incubated at 37° C. for 1 hr before stimulation.
# The resulting mix was warmed to 37° C. 50 μL of 5×Axl 1st/2nd of antibody cluster was added to the cells and the cells were incubated at 37° C. for 5 min.
# After 5 minutes stimulation, the plate was flicked to remove medium and the plate was tapped onto paper towels. Formaldehyde (4.0% in PBS, 100 μL) was added to fix the cells and the cells were incubated at ambient temperature for 20 min without shaking.
# The cells were washed with a plate washer buffer to remove the formaldehyde solution. The plate was flicked to removed excess wash buffer and tapped onto paper towels. Quenching buffer (100 μL) was added to each well and the cells were incubated at ambient temperature for 20 minutes without shaking.
# The cells were washed with a plate washer buffer to remove the quenching buffer. Blocking buffer (100 μL) was added and the cells were incubated at ambient temperature for at least an hour with gentle shaking.
# The cells were washed with a plate washer buffer and diluted primary antibody (50 μL) was added to each well (blocking buffer was added to the negative control wells instead). The plates were incubated overnight at 4° C. with gentle shaking.
# The wash buffer was removed, diluted secondary antibody (100 μL) was added, and the cells were incubated at ambient temperature for 1 hour with gentle shaking. During the incubation, the chemiluminescent reagent was brought to ambient temperature.
# The secondary antibody was removed by washing the cells 1× with wash buffer, 1× with PBS by plate washer.
row,SMILES,pIC50
1,"CCN(CC)C1CCN(c2ccc(Nc3nc(N)n(-c4ncnc5c4CCCc4ccccc4-5)n3)cc2F)CC1 [Compound 39, 1-(6,7-dihydro-5H-benzo[6,7]cyclohepta[1,2-d]pyrimidin-4-yl)-N^3-(3-fluoro-4-(4-(diethylamino)piperidin-1-yl)phenyl)-1H-1,2,4-triazole-3,5-diamine]",> 6.00
2,"CN1CCN(c2ccc(Nc3nc(N)n(-c4ncc5c(n4)-c4ccccc4CCC5)n3)cc2)CC1 [Compound 40, 1-(6,7-dihydro-5H-benzo[6,7]cyclohepta[1,2-d]pyrimidin-2-yl)-N^3-(4-(N-methylpiperazin-1-yl)phenyl)-1H-1,2,4-triazole-3,5-diamine]",5.00 to 6.00
3,"CN1CCN(c2ccc(Nc3nc(N)n(-c4cc5c(nn4)-c4ccccc4N(C)CC5)n3)cc2)CC1 [Compound 41, 1-(7-methyl-6,7-dihydro-5H-benzo[2,3]azepino[4,5-c]pyridazin-3-yl)-N^3-(4-(N-methylpiperazin-1-yl)phenyl)-1H-1,2,4-triazole-3,5-diamine]",5.00 to 6.00
4,"CN1CCc2cc(-n3nc(Nc4ccc(OCCN5CCCC5)c(F)c4)nc3N)nnc2-c2ccccc21 [Compound 42, 1-(7-methyl-6,7-dihydro-5H-benzo[2,3]azepino[4,5-c]pyridazin-3-yl)-N^3-(3-fluoro-4-(2-(pyrrolidin-1-yl)ethoxy)phenyl)-1H-1,2,4-triazole-3,5-diamine]",> 6.00
5,"CN1CCc2cc(-n3nc(Nc4ccc(N5CCN(C6CCCCC6)CC5)c(F)c4)nc3N)nnc2-c2ccccc21 [Compound 43, 1-(7-methyl-6,7-dihydro-5H-benzo[2,3]azepino[4,5-c]pyridazin-3-yl)-N^3-(3-fluoro-4-(4-cyclohexylpiperazinyl)phenyl)-1H-1,2,4-triazole-3,5-diamine]",5.00 to 6.00
6,"Nc1nc(Nc2ccc(OCCN3CCCC3)c(F)c2)nn1-c1ncc2c(n1)-c1ccccc1CCC2 [Compound 44, 1-(6,7-dihydro-5H-benzo[6,7]cyclohepta[1,2-d]pyrimidin-2-yl)-N^3-(3-fluoro-4-(2-(pyrrolidin-1-yl)ethoxy)phenyl)-1H-1,2,4-triazole-3,5-diamine]",> 6.00
7,"Nc1nc(Nc2ccc(N3CCN(C4CCCCC4)CC3)c(F)c2)nn1-c1ncc2c(n1)-c1ccccc1CCC2 [Compound 45, 1-(6,7-dihydro-5H-benzo[6,7]cyclohepta[1,2-d]pyrimidin-2-yl)-N^3-(3-fluoro-4-(4-cyclohexylpiperazinyl)phenyl)-1H-1,2,4-triazole-3,5-diamine]",> 6.00
8,"Nc1nc(Nc2ccc(N3CCN([C@H]4CC5CCC4C5)CC3)cc2)nn1-c1ncc2c(n1)-c1ccccc1CCC2 (stereo partly drawn) [Compound 46, 1-(6,7-dihydro-5H-benzo[6,7]cyclohepta[1,2-d]pyrimidin-2-yl)-N^3-(4-(4-(2S)-bicyclo[2.2.1]heptan-2-yl)-piperazinylphenyl)-1H-1,2,4-triazole-3,5-diamine]",> 6.00
9,"Nc1nc(Nc2ccc(OCCN3CCCC3)c(Cl)c2)nn1-c1cc2c(nn1)-c1ccccc1CCC2 [Compound 47, 1-(6,7-dihydro-5H-benzo[6,7]cyclohepta[1,2-c]pyridazin-3-yl)-N^3-(3-chloro-4-(2-(pyrrolidin-1-yl)ethoxy)phenyl)-1H-1,2,4-triazole-3,5-diamine]",5.00 to 6.00
10,"Nc1nc(Nc2ccc(OCCN3CCCC3)c(F)c2)nn1-c1cc2c(nn1)-c1ccccc1CCC2 [Compound 48, 1-(6,7-dihydro-5H-benzo[6,7]cyclohepta[1,2-c]pyridazin-3-yl)-N^3-(3-fluoro-4-(2-(pyrrolidin-1-yl)ethoxy)phenyl)-1H-1,2,4-triazole-3,5-diamine]",5.00 to 6.00
11,"Nc1nc(Nc2ccc(OCCN3CCCC3)cc2)nn1C1=Nc2ccccc2Sc2ccccc21 [Compound 49, 1-((Z)-dibenzo[b,f][1,4]thiazepin-11-yl)-N^3-(4-(2-(pyrrolidin-1-yl)ethoxy)phenyl)-1H-1,2,4-triazole-3,5-diamine]",5.00 to 6.00
12,"CN1CCN(c2ccc(Nc3nc(N)n(C4=Nc5ccccc5Sc5ccccc54)n3)cc2)CC1 [Compound 50, 1-((Z)-dibenzo[b,f][1,4]thiazepin-11-yl)-N^3-(4-(N-methylpiperazin-1-yl)phenyl)-1H-1,2,4-triazole-3,5-diamine]",5.00 to 6.00
13,"CCN(CC)C1CCN(c2ccc(Nc3nc(N)n(C4=Nc5ccccc5Sc5ccccc54)n3)cc2F)CC1 [Compound 51, 1-((Z)-dibenzo[b,f][1,4]thiazepin-11-yl)-N^3-(3-fluoro-4-(4-diethylaminopiperidin-1-yl)phenyl)-1H-1,2,4-triazole-3,5-diamine]",5.00 to 6.00
14,"COc1ccc2c(c1)CCCc1cc(-n3nc(Nc4ccc(N5CCC(N6CCCC6)CC5)c(F)c4)nc3N)nnc1-2 [Compound 52, 1-(6,7-dihydro-5H-9-methoxybenzo[6,7]cyclo-hepta[1,2-c]pyridazin-3-yl)-N^3-(3-fluoro-4-(4-(pyrrolidin-1-yl)piperidin-1-yl)phenyl)-1H-1,2,4-triazole-3,5-diamine]",> 6.00
15,"Nc1nc(Nc2ccc(N3CCC(N4CCCC4)CC3)c(F)c2)nn1-c1cc2c(nn1)-c1cc(F)ccc1CCC2 [Compound 53, 1-(6,7-dihydro-5H-10-fluorobenzo[6,7]cyclo-hepta[1,2-c]pyridazin-3-yl)-N^3-(3-fluoro-4-(4-(pyrrolidin-1-yl)piperidin-1-yl)phenyl)-1H-1,2,4-triazole-3,5-diamine]",> 6.00
16,"Nc1nc(Nc2ccc(OCCN3CCCC3)c(F)c2)nn1-c1cc2c(nn1)-c1cc(F)ccc1CCC2 [Compound 54, 1-(6,7-dihydro-5H-10-fluorobenzo[6,7]cyclo-hepta[1,2-c]pyridazin-3-yl)-N^3-(3-fluoro-4-(2-(pyrrolidin-1-yl)ethoxy)phenyl)-1H-1,2,4-triazole-3,5-diamine]",> 6.00
17,"Nc1nc(Nc2ccc(N3CCN(C4CCCCC4)CC3)c(F)c2)nn1-c1cc2c(nn1)-c1cc(F)ccc1CCC2 [Compound 55, 1-(6,7-dihydro-5H-10-fluorobenzo[6,7]cyclo-hepta[1,2-c]pyridazin-3-yl)-N^3-(3-fluoro-4-(4-(cyclohexyl)piperazin-1-yl)phenyl)-1H-1,2,4-triazole-3,5-diamine]",4.70 to 5.00
